Experimental findings from patent US20240409585A1, “MACROCYCLIC IMMUNOMODULATORS” (priority 2021, published 2024) are described below.

The target in this assay is T1, PE-labeled human PD-L1-Ig binding to Jurkat cell line over-expressing human PD-1 (Jurkat-PD-1) (Homo sapiens, UniProt Q15116).
T1 construct: expressed in transfected cells; host or cells: Jurkat
Briefly: Jurkat-PD-1 Cell Binding High-Content Screening Assay (CBA): Method 1. As to conditions: Jurkat-hPD-1 cells, PE-labeled PD-L1-Ig 20 nM final; read-out: Jurkat HPDL1 PD1 IC50 (uM) (Method 1).

Bridge positions count the residues as written; N and C are the ends. Square brackets hold non-standard residues; d marks the D form. Peptide text beside a SMILES is read from it. * marks the point of attachment. ξ: configuration not given here. Phe(3-COOH) = N[C@@H](Cc1cccc(C(=O)O)c1)C(=O)O; Phe(4-COOH) = N[C@@H](Cc1ccc(C(=O)O)cc1)C(=O)O; Bip = N[C@@H](Cc1ccc(-c2ccccc2)cc1)C(=O)O; Phe(3-OMe) = COc1cccc(C[C@H](N)C(=O)O)c1; Phe(3-Me) = Cc1cccc(C[C@H](N)C(=O)O)c1; Bta = N[C@@H](Cc1csc2ccccc12)C(=O)O; aIle = CC[C@@H](C)[C@H](N)C(=O)O; 3Pal = N[C@@H](Cc1cccnc1)C(=O)O; 4Pal = N[C@@H](Cc1ccncc1)C(=O)O; Cha = N[C@@H](CC1CCCCC1)C(=O)O; Ile(3ξ) = CCC(C)[C@H](N)C(=O)O; Thr(3ξ) = CC(O)[C@H](N)C(=O)O; Ala(CN) = N#CC[C@H](N)C(=O)O; Carboxymethyl = O=C(O)C*; NMeA = CN[C@@H](C)C(=O)O; Dab = NCC[C@H](N)C(=O)O; Dap = NC[C@H](N)C(=O)O; ξV = CC(C)C(N)C(=O)O

T1 sequence (Q15116 25-288): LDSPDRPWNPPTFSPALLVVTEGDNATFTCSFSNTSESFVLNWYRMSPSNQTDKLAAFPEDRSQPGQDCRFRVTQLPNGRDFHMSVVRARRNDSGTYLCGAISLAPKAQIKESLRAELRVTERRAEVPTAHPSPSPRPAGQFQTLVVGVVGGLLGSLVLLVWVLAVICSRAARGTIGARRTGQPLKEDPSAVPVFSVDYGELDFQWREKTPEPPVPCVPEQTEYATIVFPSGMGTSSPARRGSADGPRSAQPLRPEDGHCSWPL

As a reminder, the IC50 is the point on the concentration scale where inhibition reaches its midpoint. For `Cc1cccc(C[C@@H]2NC(=O)[C@H](CC(=O)O)NC(=O)[C@H](Cc3ccncc3)NC(=O)[C@H](Cc3ccc(OCC(=O)O)cc3)NC(=O)CSC[C@@H](C(=O)N[C@@H](C)C(N)=O)NC(=O)[C@H](CO)NC(=O)[C@H](C(C)C)NC(=O)[C@H](CC(C)C)NC(=O)[C@H](CC(N)=O)NC(=O)[C@@H](C)NC(=O)[C@H](C)N(C)C(=O)[C@H](C(C)C)NC(=O)[C@H](Cc3ccc(-c4ccccc4)cc3)NC(=O)[C@H](CC(C)C)NC2=O)c1` [Compound 1583] ({CH2CO}-Y(Carboxymethyl)[4Pal]D[Phe(3-Me)]L[Bip]V[NMeA][dA]NLVSCA-NH2; thioether N-14), the IC50 was 0.01 µM.
Turning to `CC(C)C[C@@H]1NC(=O)[C@H](Cc2c[nH]c3ccccc23)NC(=O)[C@H](CC(=O)O)NC(=O)[C@H](Cc2ccc(O)cc2)NC(=O)[C@H](CC(N)=O)NC(=O)CSC[C@@H](C(=O)N[C@@H](C)C(N)=O)NC(=O)[C@H]([C@@H](C)O)NC(=O)[C@H](C(C)C)NC(=O)[C@H](CC(C)C)NC(=O)[C@H](CCCNC(=N)N)NC(=O)[C@@H](CC(C)C)NC(=O)[C@H](C)N(C)C(=O)[C@H](CCCNC(=N)N)NC(=O)[C@H](Cc2ccc(-c3ccccc3)cc2)NC1=O` [Compound 1215] ({CH2CO}-NYDWL[Bip]R[NMeA][dL]RLVTCA-NH2; thioether N-14), the IC50 is 0.08 µM.
For `CC(C)C[C@@H]1NC(=O)[C@H](Cc2c[nH]c3ccccc23)NC(=O)[C@H](CC(=O)O)NC(=O)[C@H](Cc2ccc(C(=O)O)cc2)NC(=O)[C@H](Cc2cccc(C(=O)O)c2)NC(=O)CSC[C@@H](C(=O)NCC(N)=O)NC(=O)[C@H](CO)NC(=O)[C@H](C(C)C)NC(=O)[C@H](CC2CCCCC2)NC(=O)[C@H](CCN)NC(=O)[C@@H](CC(C)C)NC(=O)[C@H](C)N(C)C(=O)[C@H](C(C)C)NC(=O)[C@H](Cc2ccc(-c3ccccc3)cc2)NC1=O` [Compound 1879] ({CH2CO}-[Phe(3-COOH)][Phe(4-COOH)]DWL[Bip]V[NMeA][dL][Dab][Cha]VSCG-NH2; thioether N-14) the value was 0.01 µM.
As for `CC(C)C[C@@H]1NC(=O)[C@H](Cc2c[nH]c3ccccc23)NC(=O)[C@H](CC(=O)O)NC(=O)[C@H](Cc2ccc(O)cc2)NC(=O)[C@H](Cc2ccccc2)NC(=O)CSC[C@@H](C(=O)N[C@@H](C)C(N)=O)NC(=O)[C@H](CO)NC(=O)[C@H](CN)NC(=O)[C@H](CC(C)C)NC(=O)[C@H](CC(N)=O)NC(=O)[C@@H](C)NC(=O)[C@H](C)N(C)C(=O)[C@H](C(C)C)NC(=O)[C@H](Cc2ccc(-c3ccccc3)cc2)NC1=O` [Compound 1532] ({CH2CO}-FYDWL[Bip]V[NMeA][dA]NL[Dap]SCA-NH2; thioether N-14), the figure is 0.17 µM; as for `CC(C)C[C@@H]1NC(=O)[C@H](Cc2c[nH]c3ccccc23)NC(=O)[C@H](CC(=O)O)NC(=O)[C@H](Cc2ccc(C(=O)O)cc2)NC(=O)[C@H](Cc2ccc(OCC(=O)O)cc2)NC(=O)CSC[C@@H](C(=O)NCC(N)=O)NC(=O)[C@H](CO)NC(=O)[C@H](C(C)C)NC(=O)[C@H](CC(C)C)NC(=O)[C@H](CC(N)=O)NC(=O)[C@@H](CC(C)C)NC(=O)[C@H](C)N(C)C(=O)[C@H](C(C)C)NC(=O)[C@H](Cc2ccc(-c3ccccc3)cc2)NC1=O` [Compound 1548] ({CH2CO}-Y(Carboxymethyl)[Phe(4-COOH)]DWL[Bip]V[NMeA][dL]NLVSCG-NH2; thioether N-14), 0.01 µM.
As for `CCC(C)[C@@H]1NC(=O)[C@H](Cc2ccc(-c3ccccc3)cc2)NC(=O)[C@H](CC(C)C)NC(=O)[C@H](Cc2c[nH]c3ccccc23)NC(=O)[C@H](CC(=O)O)NC(=O)[C@H](Cc2ccc(C(=O)O)cc2)NC(=O)[C@H](Cc2ccc(OCC(=O)O)cc2)NC(=O)CSC[C@@H](C(=O)N[C@@H](CC(N)=O)C(N)=O)NC(=O)[C@H](CO)NC(=O)[C@H](C(C)C)NC(=O)[C@H](CC2CCCCC2)NC(=O)[C@H](CCN)NC(=O)[C@@H](CC(C)C)NC(=O)[C@H](C)N(C)C1=O` (stereo partly drawn) [Compound 1917] ({CH2CO}-Y(Carboxymethyl)[Phe(4-COOH)]DWL[Bip][Ile(3ξ)][NMeA][dL][Dab][Cha]VSCN-NH2; thioether N-14), the figure is 0.04 µM.
As for `CC[C@H](C)[C@@H]1NC(=O)[C@H](Cc2ccc(-c3ccccc3)cc2)NC(=O)[C@H](C(C)C)NC(=O)[C@H](Cc2c[nH]c3ccccc23)NC(=O)[C@H](CC(=O)O)NC(=O)[C@H](Cc2ccc(O)cc2)NC(=O)[C@H](CC(N)=O)NC(=O)CSC[C@@H](C(=O)N[C@@H](C)C(N)=O)NC(=O)[C@H](CO)NC(=O)[C@H](C(C)C)NC(=O)[C@H](CC(C)C)NC(=O)[C@H](CCCCN)NC(=O)[C@@H](CC(C)C)NC(=O)[C@H](C)N(C)C1=O` [Compound 1480] ({CH2CO}-NYDWV[Bip]I[NMeA][dL]KLVSCA-NH2; thioether N-14), the IC50 amounted to 0.04 µM.
For `CCC(C)[C@@H]1NC(=O)[C@H](Cc2ccc(-c3ccccc3)cc2)NC(=O)[C@H](C(C)C)NC(=O)[C@H](Cc2c[nH]c3ccccc23)NC(=O)[C@H](CC(=O)O)NC(=O)[C@H](Cc2ccc(OCC(=O)O)cc2)NC(=O)[C@H](C(C)O)NC(=O)CSC[C@@H](C(N)=O)NC(=O)[C@H](CO)NC(=O)[C@H](C(C)C)NC(=O)[C@H](CC2CCCCC2)NC(=O)[C@H](CCN)NC(=O)[C@@H](CC(C)C)NC(=O)[C@H](C)N(C)C1=O` (stereo partly drawn) [Compound 2251] ({CH2CO}-[Thr(3ξ)]Y(Carboxymethyl)DWV[Bip][Ile(3ξ)][NMeA][dL][Dab][Cha]VSC-NH2; thioether N-14) the value was 0.02 µM.
For `CC[C@H](C)[C@@H]1NC(=O)[C@H](Cc2ccc(-c3ccccc3)cc2)NC(=O)[C@H](C(C)C)NC(=O)[C@H](Cc2c[nH]c3ccccc23)NC(=O)[C@H](CC(=O)O)NC(=O)[C@H](Cc2ccc(O)cc2)NC(=O)[C@H](CN)NC(=O)CSC[C@@H](C(=O)N[C@@H](C)C(N)=O)NC(=O)[C@H]([C@@H](C)O)NC(=O)[C@H](C(C)C)NC(=O)[C@H](CC(C)C)NC(=O)[C@H](CCN)NC(=O)[C@@H](CC(C)C)NC(=O)[C@H](C)N(C)C1=O` [Compound 1414] ({CH2CO}-[Dap]YDWV[Bip]I[NMeA][dL][Dab]LVTCA-NH2; thioether N-14) the value was 0.1 µM; for `CC[C@@H](C)[C@@H]1NC(=O)[C@H](Cc2ccc(-c3ccccc3)cc2)NC(=O)[C@H](CC#N)NC(=O)[C@H](Cc2c[nH]c3ccccc23)NC(=O)[C@H](CC(=O)O)NC(=O)[C@H](Cc2ccc(C(=O)O)cc2)NC(=O)[C@H](Cc2ccc(OCC(=O)O)cc2)NC(=O)CSC[C@@H](C(=O)N[C@@H](CCCCN)C(N)=O)NC(=O)[C@H](CO)NC(=O)C(C(C)C)NC(=O)[C@H](CC(C)C)NC(=O)[C@H](CC(N)=O)NC(=O)[C@@H](CC(C)C)NC(=O)[C@H](C)N(C)C1=O` (stereo partly drawn) [Compound 2102] ({CH2CO}-Y(Carboxymethyl)[Phe(4-COOH)]DW[Ala(CN)][Bip][aIle][NMeA][dL]NL[ξV]SCK-NH2; thioether N-14), 0.19 µM.
For `CC(C)C[C@@H]1NC(=O)[C@H](CCCNC(=N)N)NC(=O)[C@H](Cc2csc3ccccc23)NC(=O)[C@H](C)N(C)C(=O)[C@H](CCCNC(=N)N)NC(=O)[C@H](Cc2ccc(-c3ccccc3)cc2)NC(=O)[C@H](C(C)C)NC(=O)[C@H](Cc2c[nH]c3ccccc23)NC(=O)[C@H](CC(=O)O)NC(=O)[C@H](Cc2ccc(O)cc2)NC(=O)[C@H](Cc2cnc[nH]2)NC(=O)CSC[C@@H](C(=O)NCC(N)=O)NC(=O)[C@H](CO)NC(=O)[C@H](C(C)C)NC1=O` [Compound 1025] ({CH2CO}-HYDWV[Bip]R[NMeA][Bta]RLVSCG-NH2; thioether N-14) the value was 0.12 µM; for `Cc1cccc(C[C@@H]2NC(=O)[C@H](CC(=O)O)NC(=O)[C@H](Cc3ccncc3)NC(=O)[C@H](Cc3ccc(OCC(=O)O)cc3)NC(=O)CSC[C@@H](C(=O)N[C@@H](CCC(=O)O)C(N)=O)NC(=O)[C@H](CO)NC(=O)[C@H](C(C)C)NC(=O)[C@H](CC(C)C)NC(=O)[C@H](CC(N)=O)NC(=O)[C@@H](CC(C)C)NC(=O)[C@H](C)N(C)C(=O)[C@H](C(C)C)NC(=O)[C@H](Cc3ccc(-c4ccccc4)cc3)NC(=O)[C@H](CC(C)C)NC2=O)c1` [Compound 1603] ({CH2CO}-Y(Carboxymethyl)[4Pal]D[Phe(3-Me)]L[Bip]V[NMeA][dL]NLVSCE-NH2; thioether N-14), 0.01 µM; for `CC(C)C[C@@H]1NC(=O)[C@H](CCCNC(=N)N)NC(=O)[C@@H](CC(C)C)NC(=O)[C@H](C)N(C)C(=O)[C@H](CCCNC(=N)N)NC(=O)[C@H](Cc2ccc(-c3ccccc3)cc2)NC(=O)[C@H](C(C)C)NC(=O)[C@H](Cc2c[nH]c3ccccc23)NC(=O)[C@H](CC(=O)O)NC(=O)[C@H](Cc2ccc(O)cc2)NC(=O)[C@H](CCC(N)=O)NC(=O)CSC[C@@H](C(=O)N[C@@H](C)C(N)=O)NC(=O)[C@H](CO)NC(=O)[C@H](C(C)C)NC1=O` [Compound 1029] ({CH2CO}-QYDWV[Bip]R[NMeA][dL]RLVSCA-NH2; thioether N-14), 0.04 µM.
Consider `COc1cccc(C[C@@H]2NC(=O)[C@H](Cc3cccnc3)NC(=O)CSC[C@@H](C(=O)NCC(N)=O)NC(=O)[C@H](CO)NC(=O)[C@H](C(C)C)NC(=O)[C@H](CC(C)C)NC(=O)[C@H](CC(N)=O)NC(=O)[C@@H](CC(C)C)NC(=O)[C@H](C)N(C)C(=O)[C@H](C(C)C)NC(=O)[C@H](Cc3ccc(-c4ccccc4)cc3)NC(=O)[C@H](CC(C)C)NC(=O)[C@H](Cc3c[nH]c4ccccc34)NC(=O)[C@H](CC(=O)O)NC2=O)c1` [Compound 1524] ({CH2CO}-[3Pal][Phe(3-OMe)]DWL[Bip]V[NMeA][dL]NLVSCG-NH2; thioether N-14), for which the IC50 is 0.01 µM.
As for `CC[C@H](C)[C@@H]1NC(=O)[C@H](Cc2ccc(-c3ccccc3)cc2)NC(=O)[C@H](C(C)C)NC(=O)[C@H](Cc2c[nH]c3ccccc23)NC(=O)[C@H](CC(=O)O)NC(=O)[C@H](Cc2ccc(O)cc2)NC(=O)[C@H](Cc2ccc(OCC(=O)O)cc2)NC(=O)CSC[C@@H](C(=O)N[C@@H](C)C(N)=O)NC(=O)[C@H]([C@@H](C)O)NC(=O)[C@H](C(C)C)NC(=O)[C@H](CC(C)C)NC(=O)[C@H](CCCNC(=N)N)NC(=O)[C@@H](CC(C)C)NC(=O)[C@H](C)N(C)C1=O` [Compound 1489] ({CH2CO}-Y(Carboxymethyl)YDWV[Bip]I[NMeA][dL]RLVTCA-NH2; thioether N-14), the figure is 0.04 µM.
